Several values for one entry are separate records, joined by “and”; a condition that tells them apart may be missing. Equal values may be shown once. Read-outs that look alike come from different tables or passages of the source.
Columns and labels:
[1] = system: HepG2-A16-CD81EGFP cells; conditions: for HepG2 1uM growth rep1 / HepG2 1uM growth rep2: HepG2, 1 µM compound treatment (10 mM stocks); for HepG2 1uM growth rep1 / HepG2 3uM growth rep1: replicate 1, normalized; for HepG2 1uM growth rep1 / HepG2 1uM growth rep2 / HepG2 3uM growth rep1 / HepG2 3uM growth rep2: average of 2 wells; for HepG2 1uM growth rep2 / HepG2 3uM growth rep2: replicate 2, normalized; for HepG2 3uM growth rep1 / HepG2 3uM growth rep2: HepG2, 3 µM compound treatment (10 mM stocks); for Average HepG2 3 µM response( %): averaged response (percent)
[2] = system: P. berghei-ANKA-GFP-LucCON liver stage parasites in HepG2-A16-CD81EGFP cells; test: P. berghei liver stage Pb-Luc assay, Method 1 (UCSD, 1536-well); assay type: cell-based, Plasmodium berghei; conditions: for PbLuc 1uM growth rep1 / PbLuc 1uM growth rep2 / PbLuc 3uM growth rep1 / PbLuc 3uM growth rep2 / Average P. berghei 3 µM response( %) / Average P. berghei 1 µM response (%): P. berghei liver stage; for PbLuc 1uM growth rep1 / PbLuc 1uM growth rep2: 1 µM compound treatment (10 mM stocks); for PbLuc 1uM growth rep1 / PbLuc 3uM growth rep1: replicate 1, normalized; for PbLuc 1uM growth rep1 / PbLuc 1uM growth rep2 / PbLuc 3uM growth rep1 / PbLuc 3uM growth rep2: average of 2 wells on a 1536 well plate; for PbLuc 1uM growth rep2 / PbLuc 3uM growth rep2: replicate 2, normalized; for PbLuc 3uM growth rep1 / PbLuc 3uM growth rep2: 3 µM compound treatment (10 mM stocks); for Average P. berghei 3 µM response( %) / Average P. berghei 1 µM response (%): averaged response (percent); for Average P. berghei 1 µM response (%): the header list (r8) defines it as the 1 µM dose
[3] = HepG2, the header list (r10) describes it as the 1 µM dose

| Structure (SMILES) | HepG2 1uM growth rep1 [1] | HepG2 1uM growth rep2 [1] | HepG2 3uM growth rep1 [1] | HepG2 3uM growth rep2 [1] | PbLuc 1uM growth rep1 [2] | PbLuc 1uM growth rep2 [2] | PbLuc 3uM growth rep1 [2] | PbLuc 3uM growth rep2 [2] | other results |
| --- | --- | --- | --- | --- | --- | --- | --- | --- | --- |
| CC(=O)OC[C@]12CCC(C)=C[C@H]1O[C@@H]1[C@H](O)[C@@H](OC(C)=O)[C@@]2(C)[C@]12CO2 [MLS000863617-01] |  |  |  |  |  |  |  |  | HepG2 viability, % of control, column 14 [1]: 5.74%; HepG2 viability, % of control, column 15 [1]: 8.75%; HepG2 viability, % of control, column 16 [1]: 5.74%; HepG2 viability, % of control, column 17 [1]: 8.75%; Pb-Luc (P. berghei liver stage luciferase signal), % of control, repeat 1 [2]: 4.68% and -0.33%; Pb-Luc (P. berghei liver stage luciferase signal), % of control, repeat 2 [2]: 4.34% and -1.04%; Pb-Luc (P. berghei liver stage luciferase signal), % of control, repeat 3 [2]: -2.60% and 1.77% |
| Br.N=c1n(CCN2CCCCC2)c2ccccc2n1CC(=O)c1ccc(Cl)c(Cl)c1 [MLS001042209-01] | 87% | 90% | 85% | 90% | 90% | 95% | 75% | 102% |  |
| CC(C)N(Cc1ccccc1)C(=O)CN1C(=O)COc2ccc(S(=O)(=O)N3CCCCCC3)cc21 [MLS001124552-01] | 91% | 91% | 88% | 90% | 121% | 115% | 113% | 144% |  |
| CCSc1nc2sc3c(c2c(=O)n1-c1ccccc1)CCN(C(C)C)C3 [MLS001173590-01] | 104% | 95% | 87% | 98% | 97% | 84% | 60% | 65% |  |
| C=C(C)CSc1nc2sc3c(c2c(=O)n1-c1ccc(C)cc1)CCN(C)C3 [MLS001173676-01] | 102% | 92% | 84% | 90% | 91% | 84% | 44% | 74% |  |
| O=C1N(c2ccccc2C(F)(F)F)OC1(Cc1ccccc1)c1ccccc1 (stereo not shown) [MLS002206595-01] | 104% | 93% | 82% | 88% | 103% | 105% | 93% | 118% |  |
| COc1ccccc1[C@@]1(C)ON(c2ccccc2C(F)(F)F)C1=O [MLS002206613-01] | 103% | 96% | 83% | 94% | 129% | 87% | 95% | 109% |  |
| O=C(CCCCCCC(=O)Nc1ccccc1)NO [NCGC00168085-22] |  |  |  |  |  |  |  |  | HepG2 viability signal, 1 uM, repeat 1 [1]: 84.33%; HepG2 viability signal, 1 uM, repeat 2 [1]: 78.31%; HepG2 viability signal, 3 uM, repeat 1 [1]: 48.31%; HepG2 viability signal, 3 uM, repeat 2 [1]: 48.65%; Pb-Luc signal, 1 uM, repeat 1 ([2]; nominal 1 uM (10 mM stock), […] for 15 mM, 1.2 uM for 12 mM, 2 uM for 20 mM stock, average of 2 wells, 1536-well plate, repeat 1): 18.69%; Pb-Luc signal, 1 uM, repeat 2 ([2]; nominal 1 uM (10 mM stock), […] for 15 mM, 1.2 uM for 12 mM, 2 uM for 20 mM stock, average of 2 wells, 1536-well plate, repeat 2): 22.42%; Pb-Luc signal, 1 uM, repeat 3 ([2]; nominal 1 uM (10 mM stock), […] for 15 mM, 1.2 uM for 12 mM, 2 uM for 20 mM stock, average of 2 wells, 1536-well plate, repeat 3): 16.08%; Pb-Luc signal, 3 uM, repeat 1 ([2]; nominal 3 uM (10 mM stock), 4.5 uM for 15 mM, 3.6 uM for 12 mM, 6 uM for 20 mM stock, average of 2 wells, 1536-well plate, repeat 1): 2.01%; Pb-Luc signal, 3 uM, repeat 2 ([2]; nominal 3 uM (10 mM stock), 4.5 uM for 15 mM, 3.6 uM for 12 mM, 6 uM for 20 mM stock, average of 2 wells, 1536-well plate, repeat 2): 4.89%; Pb-Luc signal, 3 uM, repeat 3 ([2]; nominal 3 uM (10 mM stock), 4.5 uM for 15 mM, 3.6 uM for 12 mM, 6 uM for 20 mM stock, average of 2 wells, 1536-well plate, repeat 3): 2.03% |
| COc1cc(OC)c(OC)cc1CN1CCc2nc(N(C)C)[nH]c(=O)c2CC1 [NCGC00440589] |  |  |  |  |  |  |  |  | Average HepG2 3 µM response( %) ([1]; HepG2, 3 µM dose): 100%; Average HepG2 3 µM response( %) [1, 3]: 102%; Average P. berghei 3 µM response( %) [2]: 112%; Average P. berghei 1 µM response (%) [2]: 99% |
| Cc1cc(C)n(Cc2ccc(C(=O)N3CCC(c4noc(-c5cccnc5)n4)C3)o2)n1 (stereo not shown) [NCGC00441856] |  |  |  |  |  |  |  |  | Average HepG2 3 µM response( %) ([1]; HepG2, 3 µM dose): 104%; Average HepG2 3 µM response( %) [1, 3]: 103%; Average P. berghei 3 µM response( %) [2]: 100%; Average P. berghei 1 µM response (%) [2]: 107% |

— publication PMC7822874, “Chemoprotective antimalarials identified through quantitative high-throughput screening of Plasmodium blood and liver stage parasites” (Scientific Reports, 2021)
